Patent publication US20250179032A1, “HETEROCYCLIC INHIBITORS OF GLUT9 FOR TREATMENT OF DISEASE” (HORIZON THERAPEUTICS IRELAND DAC, priority 2022, published 2025)

Biological target: T1, H. sapiens SLC2A9 variant 2 (GLUT9B) (Homo sapiens, UniProt Q9NRM0)
T1 sequence (Q9NRM0 1-511 isoform Q9NRM0-2): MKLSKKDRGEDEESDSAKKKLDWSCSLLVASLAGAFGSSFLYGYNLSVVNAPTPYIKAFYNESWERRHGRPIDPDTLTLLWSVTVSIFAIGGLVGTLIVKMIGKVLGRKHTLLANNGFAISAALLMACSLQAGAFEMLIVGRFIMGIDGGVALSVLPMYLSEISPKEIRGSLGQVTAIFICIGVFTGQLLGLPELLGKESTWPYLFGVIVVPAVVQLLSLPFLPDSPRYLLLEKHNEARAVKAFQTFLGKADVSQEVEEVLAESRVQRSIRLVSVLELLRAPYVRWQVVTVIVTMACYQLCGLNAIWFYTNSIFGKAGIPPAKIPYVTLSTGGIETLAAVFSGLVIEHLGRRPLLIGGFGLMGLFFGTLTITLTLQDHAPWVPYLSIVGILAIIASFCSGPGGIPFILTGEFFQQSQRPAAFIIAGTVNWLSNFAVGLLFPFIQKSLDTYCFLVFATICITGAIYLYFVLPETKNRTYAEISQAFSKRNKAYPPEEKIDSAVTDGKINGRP
Assay: GLUT9 functional assay: uric acid uptake in HEK293T cells, allantoin formation by MS/MS as proxy of GLUT9B inhibition
Format: cell-based
Conditions: 15 minute assay; HEK293T cells stably expressing GLUT9B and transiently A. oryzae uricase; uric acid 0.3 mM, 37° C.; read-out: 15 min IC50
Experimental: Uric acid stocks (9 mM, Millipore-Sigma, U0881) were generated in 125 mM choline chloride (Millipore-Sigma, C7017) and the concentration was determined at 293 nm using a molar extinction coefficient of 9600 M- ^1 cm- ^1) after collecting the absorbance spectra from 220-350 nm. Allantoin stocks (12 mM Toronto Research Chemicals, A540500) were generated in LCMS grade water (Thermo Scientific, 51140). The concentration of allantoin was determined by qNMR (Michigan State University). HEK293T cells were purchased from ATCC (HEK 293T/17 SF). Hanks buffered saline salts (HBSS) was purchased from Millipore-Sigma (H6648-1L).
SLC2A9 variant 2 was assayed in sodium gluconate buffer was composed of 125 mM sodium gluconate (TCI Chemicals, G0041-500G), 4.8 mM potassium gluconate (TCI Chemicals, G0040-500G), 1.2 mM calcium gluconate (TCI Chemicals, G0037-500G), 1.2 mM potassium phosphate (pH 7.4, Millipore-Sigma, 17835), 1.2 mM MgSO4, Millipore-Sigma, M2773-500G), 25 mM HEPES pH 7.3, (Millipore-Sigma, 54457). The final pH of the buffer was 7.4. Urate 1 was assayed in the same buffer save the pH was made to be 5.5 using 25 mM MES (pH 5.5) buffer vs 25 mM HEPES (pH 7.3) buffer.
Human untagged clone for (untagged)-human solute carrier family 2 member 9 (SLC2A9), transcript variant (SLC2A9/NM_001001290, FIG. 1 and FIG. 2; SEQ ID NOS: 3 and 4) was purchased from Origene (Cat #SC319239). SLC2A9 variant 2 (GLUT9B) gene was amplified by PCR using the following primer to allow for the introduction of EcoR1 and Not1 sites using the primers below.
HEK293T clonal stable cell lines containing the SLC2A9 variant 2 construct in the bicistronic pIRESpuro vector were generated using Viafect™ (Promega E4981) as per the manufactures instructions and puromycin selection (5 μg×mL^−1).
Uric acid uptake was measured in HEK293T cells stably expressing H. sapiens SLC2A9 variant 2 (GLUT9B) and transiently expressing A. oryzae uricase. Thus, decreased allantoin formation was used as a proxy of GLUT9B inhibition. Briefly, clonal cells were plated (53,000 cells/cm^2) in DMEM with 10% FBS. Twenty-four hours later, A. oryzae uricase was transfected, and assay conducted 3 days later across a 12-point curve in buffer (in mM: 125 sodium gluconate, 4.8 potassium gluconate, 1.2 calcium gluconate, 1.2 potassium phosphate, 1.2 magnesium sulfate4, 25 HEPES; pH 7.4) with uric acid at the GLUT9B Km (0.3 mM) for 15 min or for 60 min, at 37° C. Following wash (Hanks, 37° C.), plates were sealed, incubated (5 min, RT) and cells freeze-thawed prior to lysing in water and shaking (30 min RT). Lysates were filtered through PVDF and subjected to MSMS using a 10 mM ammonium acetate-based mobile phase on a porous graphitic carbon column. Allantoin was detected in positive ion mode. Desired analyte concentrations were quantitated by integrating the area under the curve followed by a log-logistic regression model and data compared to a standard curve prepared in a matching HEK293T biological matrix.
Mass spectrometry measurement of allantoin was completed using an Agilent RapidFire 300 coupled to a Sciex API 4000 mass spectrometer. The stationary phase was an Agilent cartridge D (hypercarb). Mobile phase A was 10 mM ammonium acetate. Mobile phase B was 5 mM ammonium acetate, 25% acetonitrile, 25% acetone. Allantoin was detected in positive ion mode with the following compound ID settings: Q1 159, Q3 115.8, DP 57, CE 12.5 Dwell 100 ms. The source settings were CAD 10, CUR 20, GS1 50, GS250 IS/NC: 5000, TEM 650, EP 10, CXP 10 where Q1 and Q3 resolution were set to low.
Data was quantitated using Area under the curve integration was performed with the RapidFire™ Integrator (Agilent Technologies) for the desired analytes. Quantitation was completed using in a using a log-logistic regression model using allantoin in matching HEK293T biological matrix.

Row | IC50 [nM] | SMILES
1 | > 2000 | CCCCc1cnc(-c2ccc(OC)cc2)c(-c2ccc(C(=O)O)cn2)c1 [Compound 24, 5′-butyl-2′-(4-methoxyphenyl)-[2,3′-bipyridine]-5-carboxylic acid]
2 | > 2000 | CCCCc1cnc(-c2ccc(OC)cc2)c(-c2ncc(C(=O)O)s2)c1 [Compound 25, 2-(5-butyl-2-(4-methoxyphenyl)pyridin-3-yl)thiazole-5-carboxylic acid]
3 | > 2000 | CCCCc1cnc(-c2ccc(OC)cc2)c(-c2cc(=O)[nH][nH]2)c1 [Compound 26, 5-(5-butyl-2-(4-methoxyphenyl)pyridin-3-yl)-1,2-dihydro-3H-pyrazol-3-one]
4 | 500 to 2000 | CCCCc1cnc(-c2ccc(OC)cc2)c(-c2ccc3c(c2)CNC3=O)c1 [Compound 27, 5-(5-butyl-2-(4-methoxyphenyl)pyridin-3-yl)isoindolin-1-one]
5 | 500 to 2000 | CCCCc1nc(-c2ccc(OC)cc2)c(N2CCC(C(=O)O)CC2)o1 [Compound 28, 1-(2-butyl-4-(4-methoxyphenyl)oxazol-5-yl)piperidine-4-carboxylic acid]
6 | < 500 | CCCCc1cnc(-c2ccc(OC)cc2)c(-c2cn(CC(=O)O)nn2)c1 [Compound 29, 2-(4-(5-butyl-2-(4-methoxyphenyl)pyridin-3-yl)-1H-1,2,3-triazol-1-yl)acetic acid]
7 | < 500 | COc1ccc(-c2ncc(CCC(F)(F)C(F)(F)F)nc2N2CCC(C(=O)O)CC2)cc1 [Compound 30, 1-(3-(4-methoxyphenyl)-6-(3,3,4,4,4-pentafluorobutyl)pyrazin-2-yl)piperidine-4-carboxylic acid]
8 | < 500 | COc1ccc(-c2ncc(CCCC(F)(F)F)nc2N2CCC(C(=O)O)CC2)cc1 [Compound 31, 1-(3-(4-methoxyphenyl)-6-(4,4,4-trifluorobutyl)pyrazin-2-yl)piperidine-4-carboxylic acid]
9 | > 2000 | COc1ccc(-c2ncc(COCC(F)(F)F)nc2N2CCC(C(=O)O)CC2)cc1 [Compound 32, 1-(3-(4-methoxyphenyl)-6-((2,2,2-trifluoroethoxy)methyl)pyrazin-2-yl)piperidine-4-carboxylic acid]
10 | 500 to 2000 | COCCOc1ccc(-c2ncc(COCC(F)(F)F)nc2N2CCC(C(=O)O)CC2)cc1 [Compound 33, 1-(3-(4-(2-methoxyethoxy)phenyl)-6-((2,2,2-trifluoroethoxy)methyl)pyrazin-2-yl)piperidine-4-carboxylic acid]
11 | 500 to 2000 | COCCOc1ccc(-c2ncc(CCCC(F)(F)F)nc2N2CCC(C(=O)O)CC2)cc1 [Compound 34, 1-(3-(4-(2-methoxyethoxy)phenyl)-6-(4,4,4-trifluorobutyl)pyrazin-2-yl)piperidine-4-carboxylic acid]
12 | 500 to 2000 | CCCCc1cnc(-c2ccc(OC)cc2)c(-c2ccc3c(c2)COC3=O)n1 [Compound 35, 5-(6-butyl-3-(4-methoxyphenyl)pyrazin-2-yl)isobenzofuran-1(3H)-one]
13 | 500 to 2000 | CCCCc1cnc(-c2ccc(OC)cc2)c(N2CC3(CC(C(=O)O)C3)C2)n1 [Compound 36, 2-(6-butyl-3-(4-methoxyphenyl)pyrazin-2-yl)-2-azaspiro[3.3]heptane-6-carboxylic acid]
14 | < 500 | CCCCc1cnc(-c2ccc(OCCOC)c(F)c2)c(N2CCC(C(=O)O)CC2)n1 [Compound 37, 1-(6-butyl-3-(3-fluoro-4-(2-methoxyethoxy)phenyl)pyrazin-2-yl)piperidine-4-carboxylic acid]
15 | 500 to 2000 | CCCCc1cnc(-c2cc(F)c(OCCOC)c(F)c2)c(N2CCC(C(=O)O)CC2)n1 [Compound 38, 1-(6-butyl-3-(3,5-difluoro-4-(2-methoxyethoxy)phenyl)pyrazin-2-yl)piperidine-4-carboxylic acid]
16 | < 500 | CCCCc1cnc(-c2ccc(OC)cc2)c(-c2ccc3c(C(=O)O)c[nH]c3c2)c1 [Compound 39, 6-(5-butyl-2-(4-methoxyphenyl)pyridin-3-yl)-1H-indole-3-carboxylic acid]
17 | < 500 | CCCCc1cnc(-c2ccc(OC)cc2)c(-c2ccc3c(C(=O)O)coc3c2)c1 [Compound 40, 6-(5-butyl-2-(4-methoxyphenyl)pyridin-3-yl)benzofuran-3-carboxylic acid]
18 | 500 to 2000 | CCCCc1cnc(-c2ccc(OC)cc2)c(N2CCc3c(C(=O)O)csc3C2)n1 [Compound 41, 6-(6-butyl-3-(4-methoxyphenyl)pyrazin-2-yl)-4,5,6,7-tetrahydrothieno[2,3-c]pyridine-3-carboxylic acid]
19 | > 2000 | CCCCc1cnc(-c2ccc(OCCOC(F)(F)F)cc2)c(N2CCC(C(=O)O)CC2)n1 [Compound 42, 1-(6-butyl-3-(4-(2-(trifluoromethoxy)ethoxy)phenyl)pyrazin-2-yl)piperidine-4-carboxylic acid]
20 | > 2000 | CCCCc1cnc(-c2ccc(OC)s2)c(N2CCC(C(=O)O)CC2)n1 [Compound 43, 1-(6-butyl-3-(5-methoxythiophen-2-yl)pyrazin-2-yl)piperidine-4-carboxylic acid]
21 | > 2000 | CCCCc1cnc(-c2cnc(OC)s2)c(N2CCC(C(=O)O)CC2)n1 [Compound 44, 1-(6-butyl-3-(2-methoxythiazol-5-yl)pyrazin-2-yl)piperidine-4-carboxylic acid]
22 | < 500 | CCCCc1cnc(-c2ccc3c(c2)OCO3)c(N2CCC(C(=O)O)CC2)n1 [Compound 45]
23 | < 500 | CCCCc1cnc(-c2cc(F)c3c(c2)OCO3)c(N2CCC(C(=O)O)CC2)n1 [Compound 46, 1-(6-butyl-3-(7-fluorobenzo[d][1,3]dioxol-5-yl)pyrazin-2-yl)piperidine-4-carboxylic acid]
24 | 500 to 2000 | CCCCc1cnc(-c2ccc3c(c2)C(=O)CO3)c(N2CCC(C(=O)O)CC2)n1 [Compound 47, 1-(6-butyl-3-(3-oxo-2,3-dihydrobenzofuran-5-yl)pyrazin-2-yl)piperidine-4-carboxylic acid]
25 | < 500 | CCCCc1cnc(-c2ccc(OC)cc2)c(N2CCC(CCC(=O)O)CC2)n1 [Compound 48, 3-(1-(6-butyl-3-(4-methoxyphenyl)pyrazin-2-yl)piperidin-4-yl)propanoic acid]
26 | 500 to 2000 | COCc1cnc(-c2cc(F)c3occc3c2)c(N2CCC(C(=O)O)CC2)n1 [Compound 49, 1-(3-(7-fluorobenzofuran-5-yl)-6-(methoxymethyl)pyrazin-2-yl)piperidine-4-carboxylic acid]
27 | > 2000 | COCCn1ccc2cc(-c3ncc(COC)nc3N3CCC(C(=O)O)CC3)cc(F)c21 [Compound 50, 1-(3-(7-fluoro-1-(2-methoxyethyl)-1H-indol-5-yl)-6-(methoxymethyl)pyrazin-2-yl)piperidine-4-carboxylic acid]
